Reference: ChEMBL document CHEMBL2311490 (Bioorg Med Chem Lett, 2013)

What was measured:
[1] = Displacement of [125I]2-iodomelatonin from melatonin receptor in chicken brain membranes after 60 mins by gamma counting; type: cell membranes, Gallus gallus, Membrane
[2] = biological target: Melatonin receptor type 1A (Homo sapiens, UniProt P48039); test: Displacement of [125I]2-iodomelatonin from human recombinant MT1 receptor expressed in HEK293 cells after 2 hrs by gamma counting; type: cell-based
[3] = biological target: T1, Melatonin receptor type 1B (Homo sapiens, UniProt P49286); test: Displacement of [125I]2-iodomelatonin from human recombinant MT2 receptor expressed in HEK293 cells after 2 hrs by gamma counting; type: cell-based
T1 sequence (P49286 whole entry): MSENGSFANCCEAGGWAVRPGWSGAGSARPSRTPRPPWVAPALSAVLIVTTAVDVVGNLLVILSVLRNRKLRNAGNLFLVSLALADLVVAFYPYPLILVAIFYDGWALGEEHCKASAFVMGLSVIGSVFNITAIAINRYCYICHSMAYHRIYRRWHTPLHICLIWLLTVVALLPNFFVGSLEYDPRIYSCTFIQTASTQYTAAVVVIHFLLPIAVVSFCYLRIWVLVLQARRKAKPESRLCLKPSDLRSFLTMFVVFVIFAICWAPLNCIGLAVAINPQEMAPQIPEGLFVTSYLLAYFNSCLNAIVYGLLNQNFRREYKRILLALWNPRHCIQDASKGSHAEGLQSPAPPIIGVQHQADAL

Xenopus laevis [4] = species: Xenopus laevis; test: Antimelanogenic activity in Xenopus laevis tadpoles assessed as melanophore aggregation by microscopy relative to melatonin; type: functional
Xenopus laevis [5] = species: Xenopus laevis; test: Ratio of melatonin EC50 to compound EC50 for antimelanogenic activity in Xenopus laevis tadpoles assessed as melanophore aggregation by microscopy; type: functional
Xenopus laevis [6] = species: Xenopus laevis; test: Antimelanogenic activity in Xenopus laevis tadpoles assessed as melanophore aggregation by microscopy; type: functional, organism-based

Chain of Melatonin receptor type 1A (P48039 whole entry): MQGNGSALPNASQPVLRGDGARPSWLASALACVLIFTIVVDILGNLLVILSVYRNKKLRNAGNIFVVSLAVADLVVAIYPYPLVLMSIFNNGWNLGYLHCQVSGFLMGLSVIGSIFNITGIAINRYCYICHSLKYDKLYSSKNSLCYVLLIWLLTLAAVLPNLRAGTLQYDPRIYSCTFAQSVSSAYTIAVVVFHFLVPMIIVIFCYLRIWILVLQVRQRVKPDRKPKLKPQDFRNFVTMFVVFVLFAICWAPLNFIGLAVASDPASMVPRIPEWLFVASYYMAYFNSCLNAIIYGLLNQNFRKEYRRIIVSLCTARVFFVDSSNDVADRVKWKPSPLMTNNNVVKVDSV

SMILES	Ki [1]	Ki [2]	Ki [3]	fold change (FC) (Xenopus laevis [4])	Ratio EC50 (Xenopus laevis [5])	EC50 (Xenopus laevis [6])
COc1cccc(/C=C/NC(C)=O)c1	803 nM					
COc1ccc2ccc(OC)c(/C=C/NC(C)=O)c2c1	0.012 nM	0.03 nM	0.07 nM	3473	1000	0.00076 nM
CC(=O)N[C@@H]1C[C@H]1c1cccc2ccccc12 (racemic)	128 nM	19 nM	6.8 nM			> 10000 nM
COc1ccc(OC)c([C@@H]2C[C@@H]2NC(C)=O)c1 (racemic)	> 1000 nM					
CNC(=O)N/C=C/c1cccc2ccccc12	139 nM	25 nM	15 nM			
COc1ccccc1/C=C/NC(C)=O	> 1000 nM					
CNC(=O)N/C=C/c1c(OC)ccc2ccccc12	36.6 nM	3.1 nM	6.5 nM			
COc1ccc2[nH]cc(CCNC(C)=O)c2c1 [MELATONIN]	0.54 nM					
CNC(=O)N/C=C/c1cccc2ccc(OC)cc12	0.44 nM					
COc1ccc2ccc(OC)c([C@@H]3C[C@H]3NC(C)=O)c2c1 (racemic)	0.46 nM	0.06 nM	0.2 nM	264		0.01 nM
COc1ccc2ccccc2c1/C=C/NC(C)=O	4.6 nM	0.1 nM	0.09 nM	0.028		93.5 nM
COc1ccc2ccccc2c1[C@@H]1C[C@H]1NC(C)=O (racemic)	15 nM	3.7 nM	2.6 nM	0.025		101 nM
COc1ccccc1[C@@H]1C[C@H]1NC(C)=O (racemic)	> 1000 nM					
COc1ccc2cccc(/C=C/NC(C)=O)c2c1	0.16 nM	0.04 nM	0.03 nM	6.1		0.035 nM
COc1ccc(OC)c(/C=C/NC(C)=O)c1	283 nM					
CC(=O)N/C=C/c1cccc2ccccc12		6.7 nM	1.4 nM	0.0031		854 nM
COc1cccc([C@@H]2C[C@H]2NC(C)=O)c1 (racemic)	93 nM					
CNC(=O)N/C=C/c1cc(OC)ccc1OC	> 1000 nM					
COc1ccc2cccc(CCNC(C)=O)c2c1 [AGOMELATINE]	0.67 nM					0.35 nM
CNC(=O)N/C=C/c1ccccc1OC		> 1000 nM	> 1000 nM			
COc1ccc(OC)c([C@@H]2C[C@H]2NC(C)=O)c1 (racemic)	130 nM	87 nM	86 nM			
CNC(=O)N/C=C/c1c(OC)ccc2ccc(OC)cc12	0.08 nM	0.2 nM	0.3 nM			
COc1ccc2cccc([C@@H]3C[C@H]3NC(C)=O)c2c1 (racemic)	1.6 nM	0.3 nM	0.7 nM	0.017		155 nM
